Experimental data: patent publication US20250064808A1, “METHODS FOR THE TREATMENT OF NLRP3 RELATED DISORDERS” (priority 2022, published 2025)

Assays:
BMDM [1] = assay: extracellular (cell-free) mtDNA released by donor BMDM; type: cell-based, mouse; details: for amount of DNA released by LPS-primed donor BMDM challenged with the NLRP3 activator: 1500,000 donor cells per group, LPS-primed only approximately 0.1 μg
Description: Extracellular DNA of donor macrophages (1500,000 cells per group) was isolated using QIAamp Circulating Nucleic Acid Kit according to manufacturer's instructions and then eluted in 300 μL distilled H2O and quantified using spectrophotometric analysis at 260/280 nm with Nanodrop. […] Applicant used 5% of the prepared DNA for qPCR measurement of extracellular mtDNA and the remaining 95% were added to the recipient BMDM for analyzing the paracrine immunostimulatory effects.

VDAC = VDAC cross-linking assay (VDAC oligomerization) in BMDM; type: cell-based, mouse; details: LPS-primed BMDM; for VDAC oligomerization induced by NLRP3 activator: compound pretreatment 16 h (VBIT-4 10 μM, CsA 1 μM, RuR 10 μM), ATP 4 mM or nigericin 10 μM 1 h; for induction of VDAC oligomerization by mtROS generator: DMNQ 20 μM 16 hrs or MitoParaquat 5 μM 1 hr
Description: BMDM treated as indicated were washed and collected in PBS, incubated for 40 min at 30° C. with the cross-linking reagent EGS (200 μM). Samples were subjected to SDS-PAGE and IB analyzed with anti-VDAC antibody.

mPTP = assay: calcein-quenching assay for mPTP opening in BMDM; type: cell-based; details: for mPTP opening (calcein fluorescence): BMDM pretreated 16 h (CsA 1 μM, VBIT-4 10 μM, RuR 10 μM), LPS-primed, ATP or nigericin 1 h; for induction of mPTP opening by mtROS generator: LPS-primed BMDM, DMNQ 20 μM 16 hrs or MitoParaquat 5 μM 1 hr
Description: (§2) Bone marrow cells were cultured in high glucose DMEM supplemented with 10% FBS, 20% L929-cell conditioned medium, and 100 U/mL penicillin-streptomycin for 7-10 days at 37° C. with 5% CO2 (Hornung et al., 2008).
(§3) Mitochondrial membrane potential was measured using TMRM according to manufacturer's instructions. Briefly, BMDM were primed or not with LPS for 4 h, and further stimulated with ATP or nigericin for 60 minutes. Cells were incubated with 200 nM TMRM for 30 minutes at 37° C. After washing twice, fluorescence intensity was determined per manufacturer's instructions using a FilterMax F5 multimode plate reader (Molecular Devices). Mitochondrial reactive oxygen species (mtROS) were measured using MitoSOX (Invitrogen) as described (Xian et al., 2021). BMDM treated as indicated were loaded with 4 μM MitoSOX for 20 minutes. After washing with PBS twice, cells were resuspended in PBS and counted. Equal numbers of cells from different treatment groups were then plated onto 96-well plates for fluorescence reading. To quantify [Ca^2+]m by 5 μM Rhod-2 or intracellular Ca^2+ intensity by 1 μM Fluo-4, BMDM treated as indicated were loaded with the respective dyes according to manufacturer's instructions for 30 minutes. After washing twice, fluorescence intensity was determined using a FilterMax F5 multimode plate reader (Molecular Devices). To analyze mPTP opening by calcein-quenching assay, BMDM treated as indicated were loaded with calcein at 2 μM and CoCl2 at 160 μM for 30 minutes at 37° C. according to manufacturer's instructions. After washing twice, fluorescence intensity was determined per with a FilterMax F5 multimode plate reader (Molecular Devices).

BMDM [2] = assay: cytosolic Ox-mtDNA (8-OH-dG ELISA of cytosolic mtDNA) in BMDM; type: cell-based, mouse; details: for induction of Ox-mtDNA cytosolic release by mtROS generator: DMNQ 20 μM 16 hrs or MitoParaquat 5 μM 1 hr
Description: as §2
(§4) BMDM were stimulated as indicated. […] Briefly, BMDM were washed with PBS and harvested, 10% of which were saved for DNA extraction of whole cells. The remaining BMDM resuspended with pre-chilled mitochondrial extraction buffer 1 (220 mM mannitol, 70 mM sucrose, 20 mM HEPES-KOH, pH 7.5, 1 mM EDTA and 2 mg/mL bovine serum albumin) supplemented with a protease inhibitor cocktail and a phosphatase inhibitor cocktail were passed through a 25-G syringe (BD Biosciences) 20 times on ice. The homogenized cells were centrifuged at 1000×g for 15 minutes at 4° C. The supernatant was further centrifuged at 10,000×g for 10 minutes at 4° C. to pellet the mitochondria from supernatant cytosolic fraction. qPCR was performed after DNA purification with AllPrep DNA/RNA Mini Kit according to manufacturer's instructions, from both whole cell extracts and cytosolic fractions using mtDNA primers (D-loop, Cox1, non-NUMT), or after DNA purification from whole cell extracts using nuclear DNA primers (Tert, 18S, B2m). The Ct values obtained for mtDNA abundance in whole cell extracts served as normalization controls for the mtDNA values obtained from the cytosolic fractions. For the measurement of Ox-mtDNA, purified mtDNA was extracted from the cytosolic or mitochondrial fractions as indicated. The 8-OH-dG content was then quantified using 8-hydroxy 2-deoxyguanosine ELISA Kit, per manufacturer's instructions.

BMDM [3] = assay: cytosolic mtDNA (qPCR after cellular fractionation) in BMDM; type: cell-based, mouse; details: for induction of mtDNA cytosolic release by mtROS generator: DMNQ 20 μM 16 hrs or MitoParaquat 5 μM 1 hr
Description: as §2, §4

NLRP3 inflammasome = NLRP3 inflammasome activation (Casp1 p20 and mature IL-1β, IB and ELISA) in BMDM; type: cell-based, mouse; details: for NLRP3 inflammasome activation (Casp1 activation and mature IL-1β secretion): LPS-primed BMDM, compound pretreatment 16 h, challenged with NLRP3 activators; for activation of NLRP3 inflammasome by mtROS generator: BMDM −/+ LPS priming, DMNQ or MitoParaquat
Description: (§1) Paired antibodies (capture and detection) and standard recombinant mouse IL-1β and TNF were used to determine mouse cytokine concentrations according to manufacturer's instructions.

[4] = test system: NLRP3, pro-IL-1β, pro-casp1 and ASC; assay: immunoblot of NLRP3 inflammasome component expression in BMDM lysates; type: cell-based, mouse; details: BMDM lysates before and after LPS priming, compound pretreatment 16 h
TNF = TNF secretion by BMDM (ELISA); type: cell-based, mouse; details: compound pretreatment 16 h, LPS priming, NLRP3 activators
Description: as §1

BMDM [5] = assay: mitochondrial membrane potential (TMRM) in BMDM; type: cell-based, mouse; details: BMDM incubated with CsA or VBIT-4
Description: as §2
(§5) Mitochondrial membrane potential was measured using TMRM according to manufacturer's instructions. Briefly, BMDM were primed or not with LPS for 4 h, and further stimulated with ATP or nigericin for 60 minutes. Cells were incubated with 200 nM TMRM for 30 minutes at 37° C. After washing twice, fluorescence intensity was determined per manufacturer's instructions using a FilterMax F5 multimode plate reader (Molecular Devices). Mitochondrial reactive oxygen species (mtROS) were measured using MitoSOX (Invitrogen) as described (Xian et al., 2021). […] After washing with PBS twice, cells were resuspended in PBS and counted. Equal numbers of cells from different treatment groups were then plated onto 96-well plates for fluorescence reading. To quantify [Ca^2+]m by 5 μM Rhod-2 or intracellular Ca^2+ intensity by 1 μM Fluo-4, BMDM treated as indicated were loaded with the respective dyes according to manufacturer's instructions for 30 minutes. After washing twice, fluorescence intensity was determined using a FilterMax F5 multimode plate reader (Molecular Devices). […] After washing twice, fluorescence intensity was determined per with a FilterMax F5 multimode plate reader (Molecular Devices).

BMDM [6] = assay: stimulation of naive recipient BMDM by cell-free mtDNA (cytokine and ISG mRNA, qPCR); type: cell-based, mouse
Description: RNA was extracted using AllPrep DNA/RNA Mini kit, and cDNA was synthesized using SuperScript™ VILO™ cDNA Synthesis Kit. mRNA expression was determined by QPCR in a CFX96 thermal cycler (Biorad) as described (Xian et al., 2021). Data are presented in arbitrary units and calculated by the 2^(−ΔΔCT) method. Primer sequences were obtained from the NIH qPrimerDepot (http://mouseprimerdepot.nci.nih.gov) and provided by Integrated DNA technologies.
Extracellular DNA of donor macrophages (1500,000 cells per group) was isolated using QIAamp Circulating Nucleic Acid Kit according to manufacturer's instructions and then eluted in 300 μL distilled H2O and quantified using spectrophotometric analysis at 260/280 nm with Nanodrop. DNA amounts purified among the different treatment groups vary. The DNA amount secreted from LPS-primed donor BMDM is low, approximately at 0.1 μg. The amount of DNA released by LPS-primed donor BMDM challenged with ATP is about 1.3 μg, while the amount of DNA released by LPS-primed donor BMDM challenged with nigericin is around 2 μg. The amount of DNA secreted by LPS-primed donor BMDM challenged with MSU or alum is about 0.7 μg. Applicant used 5% of the prepared DNA for qPCR measurement of extracellular mtDNA and the remaining 95% were added to the recipient BMDM for analyzing the paracrine immunostimulatory effects.

BMDM [7] = assay: mtROS (MitoSOX) in BMDM; details: LPS-primed BMDM; for mtROS generated by the compound itself: DMNQ 20 μM 16 hrs or MitoParaquat 5 μM 1 hr, compared with ATP
Description: as §2, §3

ASC = ASC speck formation (immunofluorescence) in BMDM
BMDM [8] = assay: 8-OH-dG content of mtDNA from mitochondria of BMDM; details: for mtDNA oxidation caused by mtROS generator: LPS-primed BMDM, DMNQ 20 μM 16 hrs or MitoParaquat 5 μM 1 hr
Description: as §2, §4

STING = STING Ser365 phosphorylation (puncta by immunofluorescence, immunoblot) in BMDM; details: CsA 1 μM, VBIT-4 10 μM or FEN1-IN-4 10 μM 16 hrs
Description: as §2
Whole cell lysates were prepared in RIPA buffer (25 mM Tris-HCl pH 7.6, 150 mM NaCl, 1% NP-40, 1% sodium deoxycholate, 0.1% SDS) containing a protease inhibitor cocktail and a phosphatase inhibitor cocktail. Protein concentrations were determined using BCA Protein Assay Kit. Equal amounts of protein were separated by SDS-PAGE and transferred onto PVDF membranes, blocked in 5% BSA in 1×TBST for 1 h and incubated with primary antibodies overnight. Secondary antibodies were added for 1 h and detection was performed using Clarity Western ECL Substrate.
(§6) BMDM were fixed in 4% paraformaldehyde (PFA), permeabilized in 0.2% Triton X-100,and blocked in 1×PBS supplemented with 3% BSA. […] Nuclei were counterstained with DAPI.

BMDM [9] = assay: Ox-mtDNA and mtDNA in the intermembrane space (proteinase K digested mitochondria); details: supernatant of proteinase K digested mitochondria from treated BMDM
Description: To dissect the roles of VDAC oligomerization and mPTP in mtDNA escape, Applicant investigated whether Ox-mtDNA and mtDNA were trapped in the mitochondrial intermembrane space (IMS) of VBIT-4 treated BMDM. […] Using this method (FIG. 2F), Applicant measured relative Ox-mtDNA and mtDNA amounts in the IMS.
BMDM were stimulated as indicated. Cellular fractionation was carried out as previously described (Xian and Liou, 2019; Xian et al., 2019). Briefly, BMDM were washed with PBS and harvested, 10% of which were saved for DNA extraction of whole cells. The remaining BMDM resuspended with pre-chilled mitochondrial extraction buffer 1 (220 mM mannitol, 70 mM sucrose, 20 mM HEPES-KOH, pH 7.5, 1 mM EDTA and 2 mg/mL bovine serum albumin) supplemented with a protease inhibitor cocktail and a phosphatase inhibitor cocktail were passed through a 25-G syringe (BD Biosciences) 20 times on ice. The homogenized cells were centrifuged at 1000×g for 15 minutes at 4° C. […] The 8-OH-dG content was then quantified using 8-hydroxy 2-deoxyguanosine ELISA Kit, per manufacturer's instructions.

BMDM [10] = assay: mitochondrial Ca2+ ([Ca^2+]m, Rhod-2) in BMDM; type: cell-based, mouse; details: LPS-primed BMDM, XeC 5 μM or RuR 10 μM 16 h
Description: After washing, BMDM were kept in the incubator for additional 30 minutes before confocal imaging (Nikon CSU-X1 Spinning Disk). Dynamic [Ca^2+]m images were captured at 10 seconds intervals for 4 minutes, with the addition of NLRP3 agonist at 40 seconds.

BMDM [11] = assay: cytosolic Ca2+ (Fluo-4) in BMDM; type: cell-based, mouse; details: XeC 5 μM 16 h, ATP challenge
Description: as §2, §5

BMDM [12] = assay: cytochrome C release (immunofluorescence) in BMDM; type: cell-based, mouse; details: BMDM treated with etoposide (positive control)
Description: as §2, §6

BMDM [13] = assay: total mtDNA (LPS-stimulated mtDNA synthesis, qPCR) in BMDM; type: cell-based, mouse; details: compound 10 μM 16 h, before or after LPS priming
Description: Nuclear DNA encoding telomerase reverse transcriptase (Tert), 18S ribosomal RNA and β2 microglobulin (B2m) was used for normalization.

[14] = LPS-primed shCtrl or shOgg1 BMDM, CsA 1 μM or VBIT-4 10 μM 16 h, ATP 4 mM 1 h
[15] = LPS-primed BMDM, compound 10 μM 16 h, ATP 4 mM 1 h

Nc1ncnc2c1ncn2[C@@H]1O[C@H](COP(=O)(O)OP(=O)(O)OP(=O)(O)O)[C@@H](O)[C@H]1O [ATP, adenosine triphosphate]
amount of DNA released by LPS-primed donor BMDM challenged with the NLRP3 activator (BMDM [1]): about 1.3 μg

O=C(CC(CO)N1CCN(c2ccc(OC(F)(F)F)cc2)CC1)Nc1ccc(Cl)cc1 (stereo not drawn) [VBIT-4]
VDAC oligomerization induced by NLRP3 activator (VDAC): blocked
mPTP opening (calcein fluorescence) (mPTP): little effect on calcein fluorescence
reduction of cytosolic pool of Ox-mtDNA (BMDM [2]; [14]): 81±4%
reduction of cytosolic pool of mtDNA (BMDM [3]; [14]): 50-60%
NLRP3 inflammasome activation (Casp1 activation and mature IL-1β secretion) (NLRP3 inflammasome): inhibited
NLRP3, pro-IL-1β, pro-casp1 and ASC expression [4]: without affecting
TNF secretion (TNF): without affecting
mitochondrial depolarization upon NLRP3 activator challenge (BMDM [5]): abrogated
cell-free mtDNA release (BMDM [1]; LPS-primed donor BMDM pretreated with compound, challenged with ATP or nigericin): inhibited
immunostimulatory activity of DNA secreted by treated donor BMDM (BMDM [6]; recipient BMDM incubated 24 h with DNA from compound-pretreated donor BMDM, cytokine and ISG mRNAs): inhibited
mtROS production (BMDM [7]; compound pretreatment 16 h, ATP or nigericin): modest decline
ASC speck formation (ASC; BMDM, VBIT-4 10 μM 16 h, LPS-primed, ATP or nigericin 1 h): inhibited
reduction of mtDNA oxidation (8-OH-dG in mitochondrial mtDNA) (BMDM [8]; LPS-primed BMDM pretreated with CsA or VBIT-4 16 h, ATP stimulation): 45±5.0%
formation of Ser^365 phosphorylated STING puncta (STING; LPS-primed BMDM, ATP or nigericin): diminished
ATP-induced STING Ser^365 phosphorylation (immunoblot) in Nlrp3−/− BMDM (STING; LPS-primed Nlrp3−/− BMDM, ATP): completely blocked
amount of Ox-mtDNA within the IMS (BMDM [9]): elevated
amount of mtDNA (different regions of the genome) within the IMS (BMDM [9]): elevated

C1CCC[C@H]2CCCN3CC[C@@H](CCCCCC[C@@H]4CCCN5CC[C@@H](CC1)O[C@@H]45)O[C@@H]23 [XeC, xestospongin C]
ATP- or nigericin-induced [Ca^2+]m pulse (Rhod-2 fluorescence) (BMDM [10]): had no effect
cytosolic Ca^2+ (Fluo-4 fluorescence) (BMDM [11]): decreased

COC1=C(OC)C(=O)c2ccccc2C1=O [DMNQ]
induction of VDAC oligomerization by mtROS generator (VDAC): neither compound induced
induction of mPTP opening by mtROS generator (mPTP): neither compound induced
induction of Ox-mtDNA cytosolic release by mtROS generator (BMDM [2]; LPS-primed BMDM): neither compound induced
induction of mtDNA cytosolic release by mtROS generator (BMDM [3]; LPS-primed BMDM): neither compound induced
activation of NLRP3 inflammasome by mtROS generator (NLRP3 inflammasome): neither mtROS generator activated
mtROS generated by the compound itself (BMDM [7]): as much mtROS as ATP
mtDNA oxidation caused by mtROS generator (BMDM [8]): augmented

O=C1NC(=NS(=O)(=O)c2cccc3ccccc23)S/C1=C\c1ccc(Br)cc1 [Pitstop2]
cytokine mRNA induction by extracellular mtDNA (BMDM [6]; recipient BMDM with Pitstop 2 (2 uM), 24 hrs with extracellular DNA): diminish

O=c1[nH]c(=O)c2[nH]c([O-])nc2[nH]1.[Na+] [MSU, monosodium urate]
amount of DNA released by LPS-primed donor BMDM challenged with the NLRP3 activator (BMDM [1]): about 0.7 μg

COc1cc([C@@H]2c3cc4c(cc3[C@@H](O[C@@H]3O[C@@H]5CO[C@@H](C)O[C@H]5[C@H](O)[C@H]3O)[C@H]3COC(=O)[C@H]23)OCO4)cc(OC)c1O [etoposide]
cytochrome C release (BMDM [12]): induced cytochrome C release
ASC speck formation triggered by apoptosis inducer (ASC; BMDM treated with etoposide): did not trigger

N.N.N.N.N.N.N.N.N.N.N.N.N.N.[Cl-].[Cl-].[Cl-].[Cl-].[Cl-].[Cl-].[O-2].[O-2].[Ru+3].[Ru+3].[Ru+4] [RuR, ruthenium red]
VDAC oligomerization induced by NLRP3 activator (VDAC): blocked
mPTP opening (calcein fluorescence) (mPTP): blocked
cytosolic Ox-mtDNA (release) (BMDM [2]; [15]): reducing
cytosolic mtDNA release (BMDM [3]; [15]): reducing
NLRP3 inflammasome activation (Casp1 activation and mature IL-1β secretion) (NLRP3 inflammasome): suppressed
NLRP3, pro-IL-1β, pro-casp1 and ASC expression [4]: no effect
TNF secretion (TNF): no effect
ATP- or nigericin-induced [Ca^2+]m pulse (Rhod-2 fluorescence) (BMDM [10]): disrupted
LPS-stimulated mtDNA synthesis (total mtDNA) (BMDM [13]): did not inhibit

C[n+]1ccc(-c2cc[n+](CCCCCCCCCC[P+](c3ccccc3)(c3ccccc3)c3ccccc3)cc2)cc1.[I-].[I-].[I-] [mitoParaquat]
induction of VDAC oligomerization by mtROS generator (VDAC): neither compound induced
induction of mPTP opening by mtROS generator (mPTP): neither compound induced
induction of Ox-mtDNA cytosolic release by mtROS generator (BMDM [2]; LPS-primed BMDM): neither compound induced
induction of mtDNA cytosolic release by mtROS generator (BMDM [3]; LPS-primed BMDM): neither compound induced
activation of NLRP3 inflammasome by mtROS generator (NLRP3 inflammasome): neither mtROS generator activated
mtROS generated by the compound itself (BMDM [7]): as much mtROS as ATP
mtDNA oxidation caused by mtROS generator (BMDM [8]): augmented

CO[C@@H]1C[C@@H](C[C@H]2CC[C@H](C)[C@H]([C@@H](C)C(=O)O)O2)O[C@]2(O[C@](C)([C@H]3CC[C@@](C)([C@@H]4O[C@@H]([C@H]5O[C@@](O)(CO)[C@H](C)C[C@@H]5C)C[C@@H]4C)O3)C[C@H]2C)[C@@H]1C [nigericin]
amount of DNA released by LPS-primed donor BMDM challenged with the NLRP3 activator (BMDM [1]): around 2 μg
